Measurements from patent publication US10434083B2, “Transmammary delivery of cyclooxygenase-2 inhibitors for analgesia in neonates” (Iowa State University Research Foundation, Inc., priority 2018, dated 2019).
Several values for one entry are separate records, joined by “and”; a condition that tells them apart may be missing. Equal values may be shown once. Read-outs that look alike come from different tables or passages of the source.

Legend:
[1] = Total firocoxib exposure in piglets as a percentage of sow AUC; format: in vivo, swine
Experimental: The relative transfer of firocoxib from medicated sows to piglets was evaluated by comparing the piglet plasma drug concentration as a percentage of the sow plasma drug concentration at each time point. Total piglet exposure to firocoxib via milk consumed from treated dams was evaluated by comparing the firocoxib AUC for the piglets with the drug AUC calculated for the corresponding dams from each treatment. Exposure percentages were determined using the equation:
[formula] Statistical Analysis

[2] = Firocoxib pharmacokinetics in sows following IM administration (Example 2); format: in vivo, swine; conditions: for AUC(0-t) / AUC(0-inf) / CL/F / Cmax / MRT inf / Tmax / MRT last / Vd/F / half-life: female, Yorkshire×Landrace, plasma; for AUC(0-t) / AUC(0-inf): im; for MRT last: read-out: MRT0-last; for Vd/F: read-out: VZ/F; for half-life: read-out: plasma elimination half-life (T1/2λz), range over dose groups
Experimental: Protocols involved intramuscular injection of Firocoxib to lactating sows at either 0.5, 1.0, 1.5 or 2 mg/kg, and analysis in sows and select piglets at 21 days post treatment. Pregnant Yorkshire×Landrace sows (mean±SEM bodyweight, 250.3±7.61 kg) that were approximately 1 week before farrowing were sourced from a commercial swine farm. Each sow was examined by a veterinarian to confirm that she was healthy and pregnant. A unique numerical ear tag (Allflex Global Ear Tags, Allflex USA, Inc., DFW Airport, TX) was placed in the right ear of each sow for identification. The sows were housed in a commercial swine operation at MVS (West Point, Nebr.) in accordance with the recommendations in the Guide for the Care and Use of Agricultural Animals in Agricultural Use and Research and Teaching (Guide for the Care and Use of Agricultural Animals in Agricultural Research and Teaching, 2010). Sows were placed in Quad- or Euro-style farrowing stalls (Thorp Equipment, Thorp, Wis.), depending on availability. Regardless of stall type, each sow was housed in a farrowing crate measuring 0.6 m×2.1 m. Quad and Euro crates had piglet creep areas of 7.0 m^2 and 6.4 m^2, respectively. After farrowing, a heat lamp was provided on one side of the creep area for the piglets in each crate. All sows were fed a diet that met or exceeded National Research Council (NRC, 2012) nutrient requirements and water was provided ad libitum. Each litter provided at least six male and three female piglets for sampling with the exception of one sow that had 5 males and 4 females in the litter, and one sow that had 3 males and 6 females in the litter. Piglets were clinically examined and weighed on Study Day 0 prior to dosing. Cross fostering of the litters was permitted. Bodyweights were used to randomly assign sows to 1 of 4 treatment groups (n=4 sows/group) as detailed in Table 3.
A sample size of 4 sows was selected to describe the pharmacokinetics of firocoxib. For the comparison of plasma cortisol concentrations and average daily gain in bodyweight (ADG), a sample size of 36 piglets/treatment group was calculated to provide Statistical Power of 0.8 assuming an alpha of 0.05, sigma of 0.54 and delta of 0.20. At the time of study commencement (T0), sows received a single dose of firocoxib (Equioxx Injection, Merial, Duluth, Ga.) (Lot number 4VP07, Expiration Date November 2017) administered at either 0.5 mg/kg, 1.0 mg/kg, 1.5 mg/kg, or 2.0 mg/kg by IM injection into the right lateral neck using an 18-gauge, 1.5-inch needle attached to a 20-mL syringe (Table 3). In cases where the calculated dose volume exceeded 20-mL, the remaining volume was administered via IM injection in the left lateral neck muscle.
Blood samples for firocoxib determination were collected from the sows and three piglets/litter (two male and one female piglet at each time point) at 0, 2, 4, 6, 8, 12, 24, 48, 72, 96, and 120 h post-drug injection to the sow. The blood sample from each sow (8 mL/sample) was collected via the left or right jugular vein using a 25.4-mm, 16-gauge hypodermic needle (Air-Tite Products, Virginia Beach, Va.) attached to a 12-mL Luer-Lok syringe (TycoHealth Care, Mansfield, Mass.). During blood collection, a pig snare was used for manual restraint of each sow in her crate. The blood samples (2 mL/sample) from the piglets were collected from the left or right cranial vena cava using a 3.8-cm, 20-gauge hypodermic needle (TycoHealth Care, Mansfield, Mass.) attached to a 3-mL syringe (TycoHealth Care, Mansfield, Mass.). Physical restraint of the piglet was achieved by placing the animal in a supine position during sample collection. Blood samples were transferred to 6-mL evacuated tubes that contained lithium heparin (Vacuette plasma tubes, Greiner Bio-One, Monroe, N.C.) that were stored on ice for up to 2 h before processing. The blood samples were centrifuged for 10 min at 1,500×g. The plasma was then removed, placed in cryovials, and frozen at −80° C. until analysis. […]

## CC1(C)OC(=O)C(OCC2CC2)=C1c1ccc(S(C)(=O)=O)cc1 [firocoxib]
[1]; sow dose 0.5 mg/kg
  % Exposure (AUClast, piglet vs sow): 41.42%
  % Exposure (AUC∞, piglet vs sow): 43.51%
[1]; sow dose 1.0 mg/kg
  % Exposure (AUClast, piglet vs sow): 46.29%
  % Exposure (AUC∞, piglet vs sow): 56.50%
[1]; sow dose 1.5 mg/kg
  % Exposure (AUClast, piglet vs sow): 46.83%
  % Exposure (AUC∞, piglet vs sow): 53.31%
[1]; sow dose 2.0 mg/kg
  % Exposure (AUC∞, piglet vs sow): 26.75%
[1]; sow dose 2.0 mg/kg, 2 mg/kg
  % Exposure (AUClast, piglet vs sow): 25.32% and 25%
[2]; pig, 0.5 mg/kg, sow dose 0.5 mg/kg (Table 7), read-out: Sow AUClast
  AUC(0-t): 1530 ng·h/mL
[2]; pig, 0.5 mg/kg, sow dose 0.5 mg/kg (Table 7), read-out: Sow AUC∞
  AUC(0-inf): 1590 ng·h/mL
[2]; pig, 0.5 mg/kg, sows, 0.5 mg/kg IM, mean, read-out: AUC0-24h
  AUC(0-t): 1030 ng·h/mL
[2]; pig, 0.5 mg/kg, sows, 0.5 mg/kg IM, mean, read-out: AUC0-last
  AUC(0-t): 1530 ng·h/mL
[2]; pig, 0.5 mg/kg, sows, 0.5 mg/kg IM, mean, read-out: AUCINF
  AUC(0-inf): 1590 ng·h/mL
[2]; pig, 1 mg/kg, sow dose 1.0 mg/kg (Table 7), read-out: Sow AUClast
  AUC(0-t): 5330 ng·h/mL
[2]; pig, 1 mg/kg, sow dose 1.0 mg/kg (Table 7), read-out: Sow AUC∞
  AUC(0-inf): 5620 ng·h/mL
[2]; pig, 1 mg/kg, sows, 1.0 mg/kg IM, mean, read-out: AUC0-24h
  AUC(0-t): 2670 ng·h/mL
[2]; pig, 1 mg/kg, sows, 1.0 mg/kg IM, mean, read-out: AUC0-last
  AUC(0-t): 5330 ng·h/mL
[2]; pig, 1 mg/kg, sows, 1.0 mg/kg IM, mean, read-out: AUCINF
  AUC(0-inf): 5620 ng·h/mL
[2]; pig, 1.5 mg/kg, sow dose 1.5 mg/kg (Table 7), read-out: Sow AUClast
  AUC(0-t): 8320 ng·h/mL
[2]; pig, 1.5 mg/kg, sow dose 1.5 mg/kg (Table 7), read-out: Sow AUC∞
  AUC(0-inf): 8660 ng·h/mL
[2]; pig, 1.5 mg/kg, sows, 1.5 mg/kg IM, mean, read-out: AUC0-24h
  AUC(0-t): 4840 ng·h/mL
[2]; pig, 1.5 mg/kg, sows, 1.5 mg/kg IM, mean, read-out: AUC0-last
  AUC(0-t): 8320 ng·h/mL
[2]; pig, 1.5 mg/kg, sows, 1.5 mg/kg IM, mean, read-out: AUCINF
  AUC(0-inf): 8660 ng·h/mL
[2]; pig, 2 mg/kg, sow dose 2.0 mg/kg (Table 7), read-out: Sow AUClast
  AUC(0-t): 12700 ng·h/mL
[2]; pig, 2 mg/kg, sow dose 2.0 mg/kg (Table 7), read-out: Sow AUC∞
  AUC(0-inf): 13700 ng·h/mL
[2]; pig, 2 mg/kg, sows, 2.0 mg/kg IM, mean, read-out: AUC0-24h
  AUC(0-t): 6640 ng·h/mL
[2]; pig, 2 mg/kg, sows, 2.0 mg/kg IM, mean, read-out: AUC0-last
  AUC(0-t): 12700 ng·h/mL
[2]; pig, 2 mg/kg, sows, 2.0 mg/kg IM, mean, read-out: AUCINF
  AUC(0-inf): 13700 ng·h/mL
[2]; pig, sows, 0.5 mg/kg IM, mean
  CL/F: 5.5 mL/min/kg
  Cmax: 108 ± 15.2 ng/mL
  MRT inf: 29.4 h
  Tmax: 3.5 h
  MRT last: 27.2 h
  Vd/F: 13.8 L/kg
[2]; pig, sows, 1.0 mg/kg IM, mean
  CL/F: 3.5 mL/min/kg
  Cmax: 158 ± 24.9 ng/mL
  MRT inf: 34.8 h
  Tmax: 5.5 h
  MRT last: 29.4 h
  Vd/F: 7.82 L/kg
[2]; pig, sows, 1.5 mg/kg IM, mean
  CL/F: 3.17 mL/min/kg
  Cmax: 344 ± 78.9 ng/mL
  MRT inf: 33.5 h
  Tmax: 3 h
  MRT last: 26.4 h
  Vd/F: 9.12 L/kg
[2]; pig, sows, 2.0 mg/kg IM, mean
  CL/F: 3 mL/min/kg
  Cmax: 453 ± 90.3 ng/mL
  MRT inf: 36.8 h
  Tmax: 4.5 h
  MRT last: 29.1 h
  Vd/F: 7.75 L/kg
[2]; pig, sows, 0.5-2.0 mg/kg IM
  half-life: 26.7 to 31.1 h
[2]; swine, sows, 0.5-2.0 mg/kg IM
  half-life: 26.7 to 31.1 h
[2]; sows, 0.5 mg/kg IM, mean
  AUC_Exp: 3.39%
  AUMC: 31765 h^2 × ng/mL
  T1/2λZ: 28.87 h
  λZ: 0.03 h⁻¹
[2]; sows, 1.0 mg/kg IM, mean
  AUC_Exp: 4.15%
  AUMC: 164892 h^2 × ng/mL
  T1/2λZ: 26.70 h
  λZ: 0.03 h⁻¹
[2]; sows, 1.5 mg/kg IM, mean
  AUC_Exp: 4.98%
  AUMC: 215365 h^2 × ng/mL
  T1/2λZ: 29.89 h
  λZ: 0.02 h⁻¹
[2]; sows, 2.0 mg/kg IM, mean
  AUC_Exp: 5.61%
  AUMC: 392753 h^2 × ng/mL
  T1/2λZ: 31.09 h
  λZ: 0.02 h⁻¹
[2]; sows, 0.5-2.0 mg/kg IM
  volume of distribution, range over dose groups: 7.75 to 13.8 L/kg
[2]; vs flunixin (0.30 L/kg) in pigs
  volume of distribution in sows, fold larger than flunixin: approximately 26 fold
[2]; vs flunixin (7.5 h) in pigs
  elimination half-life in sows, fold longer than flunixin: ~4 fold
[2]; vs ketoprofen (0.35 L/kg) in pigs
  volume of distribution in sows, fold greater than ketoprofen: ~22 fold
[2]; vs ketoprofen (3 h) in pigs
  elimination half-life in sows, fold longer than ketoprofen: approximately 10 fold
[2]; vs meloxicam (0.42 L/kg) in pigs
  volume of distribution in sows, fold greater than meloxicam: ~18 fold
[2]; vs meloxicam (6 h) in pigs
  elimination half-life in sows, fold longer than meloxicam: ~5 fold
